Values after ≈ are worked out from the molar mass of the structure shown.

Data on two compounds can be found in US6277364A, “Polyurethanes as topical skin protectants” (Bertek Pharmaceuticals, Inc., priority 1998, dated 2001).

The nature of one data set: physchem. As to conditions: water.
The conditions of data set [1]: in vivo.
From the text: In this example, the FTIR-ATR technique was used to assess the presence and amount of polyolprepolymer-2 ("PP-2") in the stratum corneum of two human subjects, in vivo.
The test solution contained 10 wt % PP-2 dissolved in ethanol/water (60:40 v/v). the control solution consisted only of ethanol/water (60:40 v/v). Webtril™ pads (12cm×2.5cm) were saturated either with test or control solution and were applied to the left and right forearms of two subjects, respectively. The pads were secured in place with Tegaderm 1626™ occlusive transparent dressing during the entire 3 hour exposure period. The skin surface of the dosing sites was lightly wiped with two cotton-tipped swabs following the exposure period. A total of 8 tape strippings were performed: 6 were done immediately and 2 were done 2 hours later. […]
FTIR spectra of the stratum comeum was measured from the dosing site and compared with the FTIR spectra of PP-2. The ratio of PP-2 absorption at 1095 cm^-1 to stratum corneum absorption at 675 cm^-1 (R 1095/675) was determined to account for potential differences in degree of contact between the sample (forearm) and the ATR crystal. […]
The absorbance ratio, R 1095/675, of PP-2 was determined. The quantity εb was computed, based upon the known surface concentration of PP-2 and using Beer's Law (A=εbC). […]

For the compound `O=c1[nH]cc(F)c(=O)[nH]1` [5-FU, 5-fluorouracil], the solubility in the data set “physchem” was 10.2 mg/mL (≈ 78.4 mM).

As to “poly[oxy(methyl-1,2-ethanediyl)], α-hydro-ω-hydroxy-, polymer with 1,1'-methylene-bis-[4-isocyanatocyclohexane] [PP-2]”, the localization in skin result in data set [1] is recorded as “localized in the stratum corneum”.
